In patent US10485773B2, “Benzenesulfonamide derivatives and method for treating cancer” (GONGWIN BIOPHARM HOLDINGS CO., LTD., priority 2016, dated 2019):
Values after ≈ are worked out from the molar mass of the structure shown. Values joined by “and” are separate entries in the source; they are usually repeats but may differ in a detail not shown here. Identical values can stand only once. Like-named read-outs stand apart in the source and are kept apart here. Blank lines part the entries; values can stand above or below the compound they belong to.

Columns and labels:
[1] = first dissolution test in DMSO or water; conditions: for Total volume of DMSO for dissolving the p-TSA derivatives / Total volume of water for dissolving the p-TSA derivatives: first dissolution test, amount for a 3M solution in 0.5 mL, up to 15000 μL; for solubility: thermodynamic from solid
Method: Each of the powder of p-TSA derivatives was duplicated, placed in each 15 mL centrifuge tube, followed by adding 200 μL DMSO or 200 μL water and shaking for 10 to 20 seconds for dissolution observation. If the powder was not dissolved, additional DMSO or water was added, and then the mixture was shaken. The tube was left to stand for 10 minutes for observation if the powder was still not dissolved after adding 1 mL DMSO or 1 mL water. If the powder was still not dissolved after adding 5 mL DMSO or 5 mL water, additional 1 mL DMSO or 1 mL water was added, and then the mixture was shaken for 30 seconds. If the powder was still not dissolved after adding 10 mL DMSO or 10 mL water, the tube was left to stand for 12 to 16 hours and observed on the next day. DMSO or water was added into the tube having the undissolved p-TSA derivatives up to 15 mL, followed by shaking for 30 minutes for observation.

[2] = test system: human non-small-cell lung cancer cell lines H460; assay: SRB growth inhibition of lung cancer cells; assay type: cell-based; conditions: 48 hours, SRB
Method: (§1) After letting to stand for 10 minutes at room temperature, the supernatant of each well was removed, and each well was washed with 200 μL H2O once. […] Each of the plates was then placed in the laminar flow cabinet for 1 hour for air dry. 50 μL 0.4% sulforhodamine B (SRB) dye was added into each well of the 96-well plate. […] Each of the plates was then placed in the laminar flow cabinet for 40 minutes to 1 hour for air dry. 1×Tris-Base solution with pH 7.0 to 7.4 was added to each well of the 96-well plate to dissolve the protein complex formed in the bottom of each well, followed by tapping the 96-well plate, allowing the complex in each well to be dissolved uniformly. Absorption of each well under 515 nm was read. […] Each of the experimental group was performed in triplet.

[3] = test system: human liver cancer cell lines Hep3B; assay: SRB growth inhibition of liver cancer cells; assay type: cell-based; conditions: 48 hours, SRB
Method: as §1

[4] = Homo sapiens, NCI-H460, 48 h, derivative dissolved in DMSO, read-out: IC50 of H460 in DMSO
[5] = Homo sapiens, Hep3B, 48 h, derivative dissolved in DMSO, read-out: IC50 of Hep3B in DMSO
[6] = DMSO, organic solvent or mixture
[7] = derivative dissolved in DMSO, read-out: IC50 of H460 in DMSO
[8] = derivative dissolved in DMSO, read-out: IC50 of Hep3B in DMSO
[9] = Homo sapiens, NCI-H460, 48 h, derivative dissolved in water, read-out: IC50 of H460 in water
[10] = Homo sapiens, Hep3B, 48 h, derivative dissolved in water, read-out: IC50 of Hep3B in water

solubility [1, 6]: 466 mg/mL (≈ 1720 mM)
Total volume of DMSO for dissolving the p-TSA derivatives ([1]; DMSO): 870 µL
Total volume of water for dissolving the p-TSA derivatives ([1]; water): insoluble in 15000 μL
solubility ([1]; water): < 50 mg/mL
IC50 [2, 4]: 0.273 mM
IC50 [3, 5]: 0.261 mM
SMILES: Cc1ccc(S(=O)(=O)N2CC(C(=O)NO)C2)cc1 [PTSA067]

Total volume of DMSO for dissolving the p-TSA derivatives ([1]; DMSO): 2000 µL
Total volume of water for dissolving the p-TSA derivatives ([1]; water): 5000 µL
IC50 [2, 4]: 0.906 mM
IC50 [2, 9]: 1.09 mM
IC50 [3, 5]: 0.919 mM
IC50 [3, 10]: 0.954 mM
SMILES: Cc1ccc(S(=O)(=O)NC2CCNCC2)cc1.Cl [PTSA052]

Total volume of DMSO for dissolving the p-TSA derivatives ([1]; DMSO): 505 µL
Total volume of water for dissolving the p-TSA derivatives ([1]; water): insoluble in 15000 μL
IC50 [2, 4]: 1.61 mM
IC50 [3, 5]: 1.84 mM
SMILES: COCCCNS(=O)(=O)c1ccc(C)cc1 [PTSA043]

Total volume of DMSO for dissolving the p-TSA derivatives ([1]; DMSO): 750 µL
Total volume of water for dissolving the p-TSA derivatives ([1]; water): insoluble in 15000 μL
IC50 [2, 4]: > 0.713 mM
IC50 [3, 5]: > 0.713 mM
SMILES: Cc1ccc(S(=O)(=O)N2CC(F)(F)C2)cc1 [PTSA064]

Total volume of DMSO for dissolving the p-TSA derivatives ([1]; DMSO): 4500 µL
Total volume of water for dissolving the p-TSA derivatives ([1]; water): insoluble in 15000 μL
IC50 [2, 4]: > 1.12 mM
IC50 [3, 5]: > 1.12 mM
SMILES: CON=C1CN(S(=O)(=O)c2ccc(C)cc2)C1 [PTSA072]

Total volume of DMSO for dissolving the p-TSA derivatives ([1]; DMSO): 2000 µL
Total volume of water for dissolving the p-TSA derivatives ([1]; water): 10000 µL
IC50 [2, 4]: > 3 mM
IC50 [2, 9]: > 3 mM
IC50 [3, 5]: > 3 mM
IC50 [3, 10]: > 3 mM
SMILES: Cc1ccc(S(=O)(=O)NCCS(=O)(=O)O)cc1 [PTSA048]

Total volume of DMSO for dissolving the p-TSA derivatives ([1]; DMSO): 4000 µL
Total volume of water for dissolving the p-TSA derivatives ([1]; water): 4500 µL
IC50 [2, 4]: 1.27 mM
IC50 [2, 9]: 1.39 mM
IC50 [3, 5]: 1.25 mM
IC50 [3, 10]: 1.3 mM
SMILES: Cc1ccc(S(=O)(=O)N2CC(CN)C2)cc1.Cl [PTSA068]

Total volume of DMSO for dissolving the p-TSA derivatives ([1]; DMSO): 845 µL
Total volume of water for dissolving the p-TSA derivatives ([1]; water): insoluble in 15000 μL
IC50 [2, 4]: > 10 mM
IC50 [3, 5]: > 10 mM
SMILES: Cc1ccc(S(=O)(=O)N[C@@H](CO)C(=O)O)cc1 [PTSA046]

Total volume of DMSO for dissolving the p-TSA derivatives ([1]; DMSO): 900 µL
Total volume of water for dissolving the p-TSA derivatives ([1]; water): insoluble in 15000 μL
IC50 [2, 4]: 1.27 mM
IC50 [3, 5]: 1.3 mM
SMILES: Cc1ccc(S(=O)(=O)N2CC(C#N)C2)cc1 [PTSA063]

Total volume of DMSO for dissolving the p-TSA derivatives ([1]; DMSO): 2000 µL
Total volume of water for dissolving the p-TSA derivatives ([1]; water): 2500 µL
IC50 [2, 4]: > 3 mM
IC50 [2, 9]: > 3 mM
IC50 [3, 5]: > 3 mM
IC50 [3, 10]: > 3 mM
SMILES: Cc1ccc(S(=O)(=O)N2CCCC2C(=O)O)cc1 (centres unmarked) [PTSA047]

Total volume of DMSO for dissolving the p-TSA derivatives ([1]; DMSO): 3000 µL
Total volume of water for dissolving the p-TSA derivatives ([1]; water): insoluble in 15000 μL
IC50 [2, 4]: > 2.25 mM
IC50 [3, 5]: > 2.25 mM
SMILES: Cc1ccc(S(=O)(=O)N2CC(C(N)=O)C2)cc1 [PTSA062]

Total volume of DMSO for dissolving the p-TSA derivatives ([1]; DMSO): 2500 µL
Total volume of water for dissolving the p-TSA derivatives ([1]; water): insoluble in 15000 μL
IC50 [2, 4]: 1.33 mM
IC50 [3, 5]: 1.45 mM
SMILES: Cc1ccc(S(=O)(=O)N2CC(F)C2)cc1 [PTSA065]

Total volume of DMSO for dissolving the p-TSA derivatives ([1]; DMSO): 475 µL
Total volume of water for dissolving the p-TSA derivatives ([1]; water): insoluble in 15000 μL
IC50 [2, 4]: 2.49 mM
IC50 [3, 5]: 2.75 mM
SMILES: COCCNS(=O)(=O)c1ccc(C)cc1 [PTSA042]

Second part, the compound before the results:

SMILES: Cc1ccc(S(=O)(=O)NC[C@H](C)O)cc1 [PTSA023]
Total volume of DMSO for dissolving the p-TSA derivatives ([1]; DMSO): 500 µL
Total volume of water for dissolving the p-TSA derivatives ([1]; water): insoluble in 15000 μL
IC50 [2, 4]: 2.89 mM
IC50 [3, 5]: 2.65 mM

SMILES: COC(=O)NS(=O)(=O)c1ccc(C)cc1 [PTSA011]
Total volume of DMSO for dissolving the p-TSA derivatives ([1]; DMSO): 560 µL
Total volume of water for dissolving the p-TSA derivatives ([1]; water): insoluble in 15000 μL
IC50 [2, 4]: 5.49 mM
IC50 [3, 5]: 4.56 mM

SMILES: Cc1ccc(S(=O)(=O)NCCOCCO)cc1 [PTSA022]
Total volume of DMSO for dissolving the p-TSA derivatives ([1]; DMSO): 505 µL
Total volume of water for dissolving the p-TSA derivatives ([1]; water): insoluble in 15000 μL
IC50 [2, 4]: 3.65 mM
IC50 [3, 5]: 4.72 mM

SMILES: Cc1ccc(S(=O)(=O)NC(C)(CO)CO)cc1 [PTSA030]
Total volume of DMSO for dissolving the p-TSA derivatives ([1]; DMSO): 695 µL
Total volume of water for dissolving the p-TSA derivatives ([1]; water): insoluble in 15000 μL
IC50 [2, 4]: 3.3 mM
IC50 [3, 5]: 4.31 mM

SMILES: Cc1ccc(S(=O)(=O)N[C@@H](C)CO)cc1 [PTSA026]
Total volume of DMSO for dissolving the p-TSA derivatives ([1]; DMSO): 500 µL
Total volume of water for dissolving the p-TSA derivatives ([1]; water): insoluble in 15000 μL
IC50 [2, 4]: 3.25 mM
IC50 [3, 5]: 3.92 mM

SMILES: Cc1ccc(S(N)(=O)=O)cc1 [p-TSA, Toluene sulfonamide, reference compound]
Solubility in DMSO ([1]; DMSO): 785.95 mg/mL (≈ 4590 mM)
Solubility in water ([1]; water): <50 mg/mL
IC50 [2, 7]: 3.72 ± 0.146 mM
IC50 [3, 8]: 3.73 ± 0.274 mM

SMILES: Cc1ccc(S(=O)(=O)N2CCCC2CO)cc1 (centres unmarked) [PTSA034]
Total volume of DMSO for dissolving the p-TSA derivatives ([1]; DMSO): 505 µL
Total volume of water for dissolving the p-TSA derivatives ([1]; water): insoluble in 15000 μL
IC50 [2, 4]: 1.5 mM
IC50 [3, 5]: 1.78 mM

SMILES: Cc1ccc(S(=O)(=O)NC(CO)CO)cc1 [PTSA029]
Total volume of DMSO for dissolving the p-TSA derivatives ([1]; DMSO): 500 µL
Total volume of water for dissolving the p-TSA derivatives ([1]; water): insoluble in 15000 μL
IC50 [2, 4]: 1.97 mM
IC50 [3, 5]: 3.05 mM

SMILES: CCOC(=O)NS(=O)(=O)c1ccc(C)cc1 [PTSA014]
Total volume of DMSO for dissolving the p-TSA derivatives ([1]; DMSO): 610 µL
Total volume of water for dissolving the p-TSA derivatives ([1]; water): insoluble in 15000 μL
IC50 [2, 4]: 5.82 mM
IC50 [3, 5]: 4.59 mM

SMILES: Cc1ccc(S(=O)(=O)NC(C)CO)cc1 (centres unmarked) [PTSA025]
Total volume of DMSO for dissolving the p-TSA derivatives ([1]; DMSO): 560 µL
Total volume of water for dissolving the p-TSA derivatives ([1]; water): insoluble in 15000 μL
IC50 [2, 4]: 3.15 mM
IC50 [3, 5]: 3.54 mM

SMILES: Cc1ccc(S(=O)(=O)NC(=O)NS(=O)(=O)c2ccc(C)cc2)cc1 [PTSA018]
Total volume of DMSO for dissolving the p-TSA derivatives ([1]; DMSO): 2000 µL
Total volume of water for dissolving the p-TSA derivatives ([1]; water): 2500 µL
IC50 [2, 9]: > 3 mM
IC50 [2, 7]: > 3 mM
IC50 [3, 10]: > 3 mM
IC50 [3, 8]: > 3 mM

SMILES: Cc1ccc(S(=O)(=O)NC(=O)NS(=O)(=O)c2ccc(C)cc2)cc1 [PTSA017]
Total volume of DMSO for dissolving the p-TSA derivatives ([1]; DMSO): 2000 µL
Total volume of water for dissolving the p-TSA derivatives ([1]; water): insoluble in 15000 μL
IC50 [2, 4]: > 3 mM
IC50 [3, 5]: > 3 mM

SMILES: Cc1ccc(S(=O)(=O)NC2COC2)cc1 [PTSA040]
solubility [1, 6]: 762 mg/mL (≈ 3350 mM)
Total volume of DMSO for dissolving the p-TSA derivatives ([1]; DMSO): 475 µL
Total volume of water for dissolving the p-TSA derivatives ([1]; water): insoluble in 15000 μL
solubility ([1]; water): < 50 mg/mL
IC50 [2, 4]: 0.431 mM
IC50 [2, 7]: 0.406 mM
IC50 [3, 5]: 0.329 mM
IC50 [3, 8]: 0.413 mM

SMILES: Cc1ccc(S(=O)(=O)N2CC(O)C2)cc1 [PTSA037]
solubility [1, 6]: 832 mg/mL (≈ 3660 mM)
Total volume of DMSO for dissolving the p-TSA derivatives ([1]; DMSO): 605 µL
Total volume of water for dissolving the p-TSA derivatives ([1]; water): insoluble in 15000 μL
solubility ([1]; water): < 50 mg/mL
IC50 [2, 4]: 0.288 mM
IC50 [2, 7]: 0.259 mM
IC50 [3, 5]: 0.265 mM
IC50 [3, 8]: 0.274 mM and 0.264 mM
